US7009052B2, “Sulfonamide derivatives” (Warner Lambert Company LLC, priority 2003, dated 2006)

Biological target: T1, androgen receptor (Homo sapiens, UniProt P10275)
T1 sequence (P10275 1-920 Q868H): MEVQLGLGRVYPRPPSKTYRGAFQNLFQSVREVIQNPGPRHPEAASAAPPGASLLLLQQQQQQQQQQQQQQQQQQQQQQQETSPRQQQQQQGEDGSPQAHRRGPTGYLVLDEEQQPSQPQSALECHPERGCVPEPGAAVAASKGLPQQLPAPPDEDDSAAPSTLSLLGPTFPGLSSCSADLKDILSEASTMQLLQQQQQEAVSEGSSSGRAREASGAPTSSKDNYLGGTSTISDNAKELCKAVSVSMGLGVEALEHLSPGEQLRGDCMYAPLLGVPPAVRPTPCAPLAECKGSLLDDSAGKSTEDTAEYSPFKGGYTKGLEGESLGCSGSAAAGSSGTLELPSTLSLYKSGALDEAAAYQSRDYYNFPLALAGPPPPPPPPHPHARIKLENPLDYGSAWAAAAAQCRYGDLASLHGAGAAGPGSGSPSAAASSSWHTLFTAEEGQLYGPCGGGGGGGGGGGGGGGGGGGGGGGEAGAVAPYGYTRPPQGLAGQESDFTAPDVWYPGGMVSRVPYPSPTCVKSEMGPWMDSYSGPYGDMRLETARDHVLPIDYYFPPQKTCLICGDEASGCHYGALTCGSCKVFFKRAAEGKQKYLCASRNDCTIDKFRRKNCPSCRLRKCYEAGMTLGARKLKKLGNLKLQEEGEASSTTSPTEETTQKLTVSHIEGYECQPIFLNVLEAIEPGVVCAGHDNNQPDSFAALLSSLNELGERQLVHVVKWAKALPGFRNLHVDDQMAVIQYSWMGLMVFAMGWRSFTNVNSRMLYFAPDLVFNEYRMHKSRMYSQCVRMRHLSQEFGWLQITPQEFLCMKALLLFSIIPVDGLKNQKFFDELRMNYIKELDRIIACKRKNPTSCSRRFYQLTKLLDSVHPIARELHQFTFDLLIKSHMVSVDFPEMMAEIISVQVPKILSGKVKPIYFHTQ
Assay: AR Antagonist Cell Assay (MMTV-luciferase reporter, DHT-induced)
Assay type: cell-based
Details: MDA-MB453-MMTV clone 54-19 cells, 100 pM DHT, 17 hr
Method in brief: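 Stably transfected MDA-MB453 cells carrying an ARE-containing MMTV promoter–firefly luciferase reporter, pretreated 30 min with compound at 10 uM or 1 uM in 1% charcoal-treated serum medium. Then stimulated with 100 pM DHT for 17 hr at 37° C. and luminescence read; expressed as % inhibition of DHT-induced signal.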

`Cc1ccccc1CNS(=O)(=O)c1ccc2[nH]c(=O)cc(C(F)(F)F)c2c1` [Example 124, 2-Oxo-4-trifluoromethyl-1,2-dihydroquinoline-6-sulfonic acid2-methylbenzylamide] was tested. Which IC50 did it give?
Its IC50 is 4610 nM.

For `C[C@@H](NS(=O)(=O)c1ccc2[nH]c(=O)cc(C(F)(F)F)c2c1)c1ccccc1` [Example 125, 2-Oxo-4-trifluoromethyl-1,2-dihydroquinoline-6-sulfonic acid(1-phenylethyl)amide], which IC50 is on record?
Its IC50 is 2940 nM.

For `O=c1cc(C(F)(F)F)c2cc(S(=O)(=O)NC3CCCCCC3)ccc2[nH]1` [Example 126, 2-Oxo-4-trifluoromethyl-1,2-dihydroquinoline-6-sulfonic acidcycloheptylamide], which IC50 is on record?
Its IC50 is 2930 nM.

`CC(C)OCCCNS(=O)(=O)c1ccc2[nH]c(=O)cc(C(F)(F)F)c2c1` [Example 127, 2-Oxo-4-trifluoromethyl-1,2-dihydroquinoline-6-sulfonic acid(3-isopropoxypropyl)amide] was tested. Which IC50 did it give?
Its IC50 is 1600 nM.

Which IC50 does the source give for `O=c1cc(C(F)(F)F)c2cc(S(=O)(=O)NCCc3ccccc3)ccc2[nH]1` [Example 128, 2-Oxo-4-trifluoromethyl-1,2-dihydroquinoline-6-sulfonic acidphenethylamide] here?
The IC50 was 2650 nM.

With `O=c1cc(C(F)(F)F)c2cc(S(=O)(=O)NCc3ccc(F)cc3)ccc2[nH]1` [Example 129, 2-Oxo-4-trifluoromethyl-1,2-dihydroquinoline-6-sulfonic acid4-fluorobenzylamide] as the compound, how does the IC50 read?
The IC50 was over 10000 nM.

`O=c1cc(C(F)(F)F)c2cc(S(=O)(=O)NC3CCc4ccccc43)ccc2[nH]1` (centres unmarked) [Example 130, 2-Oxo-4-trifluoromethyl-1,2-dihydroquinoline-6-sulfonic acidindan-1-ylamide] was tested. Which IC50 did it give?
The IC50 was 1030 nM.

`CC(CNS(=O)(=O)c1ccc2[nH]c(=O)cc(C(F)(F)F)c2c1)c1ccccc1` (centres unmarked) [Example 131, 2-Oxo-4-trifluoromethyl-1,2-dihydroquinoline-6-sulfonic acid(2-phenylpropyl)amide] was tested. Which IC50 did it give?
Its IC50 is 350 nM.

For `O=c1cc(C(F)(F)F)c2cc(S(=O)(=O)NCCC3=CCCCC3)ccc2[nH]1` [Example 132, 2-Oxo-4-trifluoromethyl-1,2-dihydroquinoline-6-sulfonic acid(2-cyclohex-1-enylethyl)amide], which IC50 is on record?
The IC50 was 210 nM.

`O=c1cc(C(F)(F)F)c2cc(S(=O)(=O)NCCc3cccs3)ccc2[nH]1` [Example 133, 2-Oxo-4-trifluoromethyl-1,2-dihydroquinoline-6-sulfonic acid(2-thiophen-2-ylethyl)amide] was tested. Which IC50 did it give?
Its IC50 is 1900 nM.

`CN1CCCC1CCNS(=O)(=O)c1ccc2[nH]c(=O)cc(C(F)(F)F)c2c1` (centres unmarked) [Example 134, 2-Oxo-4-trifluoromethyl-1,2-dihydroquinoline-6-sulfonic acid[2-(1-methylpyrrolidin-2-yl)ethyl]amide] was tested. Which IC50 did it give?
Its IC50 is over 10000 nM.

How did the IC50 turn out when `COc1ccccc1CCNS(=O)(=O)c1ccc2[nH]c(=O)cc(C(F)(F)F)c2c1` [Example 135, 2-Oxo-4-trifluoromethyl-1,2-dihydroquinoline-6-sulfonic acid[2-(2-methoxyphenyl)ethyl]amide] was run?
The IC50 was 170 nM.

`CCOc1ccccc1CNS(=O)(=O)c1ccc2[nH]c(=O)cc(C(F)(F)F)c2c1` [Example 136, 2-Oxo-4-trifluoromethyl-1,2-dihydroquinoline-6-sulfonic acid2-ethoxybenzylamide] was tested. Which IC50 did it give?
Its IC50 is 580 nM.

With `Cc1ccc(F)cc1CNS(=O)(=O)c1ccc2[nH]c(=O)cc(C(F)(F)F)c2c1` [Example 137, 2-Oxo-4-trifluoromethyl-1,2-dihydroquinoline-6-sulfonic acid5-fluoro-2-methylbenzylamide] as the compound, how does the IC50 read?
The IC50 was 3760 nM.

For `O=c1cc(C(F)(F)F)c2cc(S(=O)(=O)NCc3cccc(Cl)c3)ccc2[nH]1` [Example 138, 2-Oxo-4-trifluoromethyl-1,2-dihydroquinoline-6-sulfonic acid3-chlorobenzylamide], which IC50 is on record?
Its IC50 is over 10000 nM.

Which IC50 does the source give for `O=c1cc(C(F)(F)F)c2cc(S(=O)(=O)NCc3c(F)cccc3F)ccc2[nH]1` [Example 139, 2-Oxo-4-trifluoromethyl-1,2-dihydroquinoline-6-sulfonic acid2,6-difluorobenzylamide] here?
The IC50 was 2980 nM.

Which IC50 does the source give for `O=c1cc(C(F)(F)F)c2cc(S(=O)(=O)NCc3ccc(F)cc3Cl)ccc2[nH]1` [Example 140, 2-Oxo-4-trifluoromethyl-1,2-dihydroquinoline-6-sulfonic acid2-chloro-4-fluorobenzylamide] here?
Its IC50 is 5650 nM.

How did the IC50 turn out when `O=c1cc(C(F)(F)F)c2cc(S(=O)(=O)NCc3cccc(Cl)c3F)ccc2[nH]1` [Example 141, 2-Oxo-4-trifluoromethyl-1,2-dihydroquinoline-6-sulfonic acid3-chloro-2-fluorobenzylamide] was run?
The IC50 was over 10000 nM.

How did the IC50 turn out when `O=c1cc(C(F)(F)F)c2cc(S(=O)(=O)NCc3c(F)cccc3Cl)ccc2[nH]1` [Example 142, 2-Oxo-4-trifluoromethyl-1,2-dihydroquinoline-6-sulfonic acid2-chloro-6-fluorobenzylamide] was run?
Its IC50 is 2390 nM.

`CSc1ccccc1CNS(=O)(=O)c1ccc2[nH]c(=O)cc(C(F)(F)F)c2c1` [Example 143, 2-Oxo-4-trifluoromethyl-1,2-dihydroquinoline-6-sulfonic acid2-methylsulfanylbenzylamide] was tested. Which IC50 did it give?
Its IC50 is 840 nM.

How did the IC50 turn out when `Cc1cccc(Cl)c1CNS(=O)(=O)c1ccc2[nH]c(=O)cc(C(F)(F)F)c2c1` [Example 144, 2-Oxo-4-trifluoromethyl-1,2-dihydroquinoline-6-sulfonic acid2-chloro-6-methylbenzylamide] was run?
Its IC50 is 5530 nM.

Which IC50 does the source give for `Cc1ccc(CNS(=O)(=O)c2ccc3[nH]c(=O)cc(C(F)(F)F)c3c2)c(F)c1F` [Example 145, 2-Oxo-4-trifluoromethyl-1,2-dihydroquinoline-6-sulfonic acid2,3-difluoro-4-methylbenzylamide] here?
The IC50 was over 10000 nM.

For `O=c1cc(C(F)(F)F)c2cc(S(=O)(=O)NCc3cc(Cl)ccc3F)ccc2[nH]1` [Example 146, 2-Oxo-4-trifluoromethyl-1,2-dihydroquinoline-6-sulfonic acid5-chloro-2-fluorobenzylamide], which IC50 is on record?
The IC50 was 6540 nM.

With `O=c1cc(C(F)(F)F)c2cc(S(=O)(=O)NCCc3c[nH]c4ccccc34)ccc2[nH]1` [Example 147, 2-Oxo-4-trifluoromethyl-1,2-dihydroquinoline-6-sulfonic acid[2-(1H-indol-3-yl)ethyl]amide] as the compound, how does the IC50 read?
The IC50 was 260 nM.

Which IC50 does the source give for `O=c1cc(C(F)(F)F)c2cc(S(=O)(=O)N[C@H]3[C@@H]4CC[C@@H](C4)[C@H]3CO)ccc2[nH]1` [Example 148, 2-Oxo-4-trifluoromethyl-1,2-dihydroquinoline-6-sulfonic acid(3-hydroxy-methylbicyclo[2.2.1]hept-2-yl)] here?
Its IC50 is 2260 nM.

Which IC50 does the source give for `COc1cc(CNS(=O)(=O)c2ccc3[nH]c(=O)cc(C(F)(F)F)c3c2)cc(OC)c1` [Example 149, 2-Oxo-4-trifluoromethyl-1,2-dihydroquinoline-6-sulfonic acid3,5-dimethoxybenzylamide] here?
The IC50 was over 10000 nM.

Which IC50 does the source give for `CC(C)(Cc1ccc(F)cc1)NS(=O)(=O)c1ccc2[nH]c(=O)cc(C(F)(F)F)c2c1` [Example 150, 2-Oxo-4-trifluoromethyl-1,2-dihydroquinoline-6-sulfonic acid[2-(4-fluorophenyl)-1,1-dimethylethyl]amide] here?
Its IC50 is 1830 nM.

Which IC50 does the source give for `O=c1cc(C(F)(F)F)c2cc(S(=O)(=O)NCc3ccccc3OC(F)F)ccc2[nH]1` [Example 151, 2-Oxo-4-trifluoromethyl-1,2-dihydroquinoline-6-sulfonic acid2-difluoromethoxybenzylamide] here?
Its IC50 is 730 nM.

Which IC50 does the source give for `Cc1ccc(F)c(CNS(=O)(=O)c2ccc3[nH]c(=O)cc(C(F)(F)F)c3c2)c1Cl` [Example 152, 2-Oxo-4-trifluoromethyl-1,2-dihydroquinoline-6-sulfonic acid2-chloro-6-fluoro-3-methylbenzylamide] here?
Its IC50 is over 10000 nM.

For `O=c1cc(C(F)(F)F)c2cc(S(=O)(=O)NCc3ccccc3C(F)(F)F)ccc2[nH]1` [Example 153, 2-Oxo-4-trifluoromethyl-1,2-dihydroquinoline-6-sulfonic acid2-trifluoromethylbenzylamide], which IC50 is on record?
The IC50 was 750 nM.

How did the IC50 turn out when `O=c1cc(C(F)(F)F)c2cc(S(=O)(=O)NCCSCc3c(F)cccc3Cl)ccc2[nH]1` [Example 154, 2-Oxo-4-trifluoromethyl-1,2-dihydroquinoline-6-sulfonic acid[2-(2-chloro-6-fluorobenzylsulfanyl)ethyl]amide] was run?
Its IC50 is 2180 nM.

Which IC50 does the source give for `O=c1cc(C(F)(F)F)c2cc(S(=O)(=O)NCc3ccccc3Sc3ccccc3CO)ccc2[nH]1` [Example 155, 2-Oxo-4-trifluoromethyl-1,2-dihydroquinoline-6-sulfonic acid2-(2-hydroxymethyl-phenylsulfanyl)benzylamide] here?
The IC50 was 1940 nM.
